Assay results from ChEMBL document CHEMBL1201862, “PubChem BioAssay data set” (2004).
Activity calls are given as the source filed them.

Key:
[1] = miR-122 activators in hepatoma reporter cells, dose response, cell-based, Huh7 psiCHECK-miR122, Renilla luciferase, cherry-picked (AID 651956); assay type: functional;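 also: huh7 hepatoma cells stably carrying a psiCHECK-2 miR-122 sensor plasmid; renilla luciferase signal reporting endogenous miR-122 activity after 48 h compound exposure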
[2] = inhibitors of PGC1a acetylation in cells, dose response, cell-based, cherry-picked samples (AID 720514); assay type: functional;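 also: potency may reflect raised or lowered acetylation signal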
[3] = HEK293T cytotoxicity, dose response, cytotoxicity control for miR-122 modulator project, cell-based, inhibitor set, cherry-pick, set 2 (AID 720697); assay type: functional
HEK293 = test: HEK293T cell cytotoxicity, dose response, cytotoxicity control, ATP luminescence, cherry-pick samples (AID 687005); assay type: functional, cell-based; settings: Homo sapiens;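 also: cells exposed to compound for 48 hours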
[4] = HEK293 Cytotoxicity Assay Measured in Cell-Based System Using Plate Reader - 7071-01_Inhibitor_Dose_CherryPick_Activity_Set2.; assay type: functional
fMet-Leu-Phe receptor = fMet-Leu-Phe receptor (Homo sapiens, UniProt P21462); test: FPR ligands, dose response (AID 519); assay type: functional
[5] = microbe, parasite or virus in culture; assay type: functional; settings: Mycobacterium tuberculosis
[6] = Artemis endonuclease inhibitor potency, dose response, biochemical, fluorescence intensity (AID 720701); assay type: functional;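 also: Artemis endonuclease enzyme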
[7] = PAX2 cell-based inhibition, dose response, selectivity assay for PAX8 inhibitor project, plate reader, dry powder samples (AID 743048); assay type: functional;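 also: HEK293 cells carrying a WT1 promoter luciferase reporter driven by expressed Pax2; potency is for inhibition of Pax2 driven reporter signal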
[8] = PAX5 activity inhibitors, dose response, selectivity assay for PAX8 inhibitor project, cell-based, plate reader, dry powder samples (AID 743047); assay type: functional;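 also: HEK293 cells carrying a Pax5 driven CD19 promoter luciferase reporter; potency of inhibitors that lower reporter luminescence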
[9] = cytotoxicity in COV434 cells, dose response, cytotoxicity control for PAX8 inhibitor project, cell-based, plate reader, dry powder, SA7 (AID 743145); assay type: functional
[10] = cytotoxicity dependent on PAX8, dose response, cell-based, plate reader, dry powder (AID 743049); assay type: functional

Sequence of fMet-Leu-Phe receptor (P21462 whole entry): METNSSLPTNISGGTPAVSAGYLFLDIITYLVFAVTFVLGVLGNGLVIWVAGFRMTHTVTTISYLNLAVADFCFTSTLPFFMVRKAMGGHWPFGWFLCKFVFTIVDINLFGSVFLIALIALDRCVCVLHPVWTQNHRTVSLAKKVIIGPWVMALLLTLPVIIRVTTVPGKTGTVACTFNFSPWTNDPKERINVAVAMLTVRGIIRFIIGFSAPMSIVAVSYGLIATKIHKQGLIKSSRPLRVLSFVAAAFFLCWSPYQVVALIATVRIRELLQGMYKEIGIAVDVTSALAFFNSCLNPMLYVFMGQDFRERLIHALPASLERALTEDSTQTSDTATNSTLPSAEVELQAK

SMILES: O=C(Nc1ccc(F)cc1)N1CCCCN2[C@H](CO)[C@@H](c3ccc(C#Cc4ccccc4)cc3)[C@H]2C1
- AC50 [1]: 10.5 µM (active)
- AC50 [2]: 22.2 µM (active)
- AC50 [3]: 8.31 µM (active)

SMILES: COc1ccc(S(=O)(=O)N[C@H]2C=C[C@H](CC(=O)N3CCC(Cc4ccccc4)CC3)O[C@@H]2CO)cc1
- AC50 (HEK293): 9.52 µM (active)
- AC50 [4]: 9.52 µM (active)

SMILES: O=C(C1=C(O)C(=O)N(Cc2ccccc2)C1c1ccco1)c1ccco1 (stereo not drawn)
- Ki (fMet-Leu-Phe receptor): 12.4 µM (active)

SMILES: CC(C)OC(=O)c1nnn(-c2nonc2N)c1CN1CCc2ccccc2C1
- Ki (fMet-Leu-Phe receptor): 50 µM (inactive)

SMILES: COc1ccc2nc(NC(=O)C3CCCN(S(=O)(=O)c4cccs4)C3)sc2c1 (stereo not drawn)
- CC50 [5]: 35.4 µM (active)
- IC50 [6]: > 20 µM (inactive)

SMILES: N#C[C@@H]1[C@@H](c2ccc(C3=CCCCC3)cc2)[C@@H](CO)N1C(=O)NC1CCCCC1
- AC50 [7]: > 32 µM (inactive)
- AC50 [8]: 29.3 µM (active)
- AC50 [9]: 67.3 µM (active)
- AC50 [10]: 10.6 µM (active)
